These results are taken from patent publication US10517964B2, “Optical imaging probes, optical imaging systems, methods of optical imaging, and methods of using optical imaging probes” (priority 2011, dated 2019).

One data set relates to C6-fluc tumors. Briefly: in vivo radioactive OI and microPET of mice bearing C6-fluc glioma. The protocol: [^18F]FDG has been widely used for imaging tumor metabolism^2,13,14, and Na^18F can accumulate in the bone^14. In this study, a group of mice (n=3) were implanted with firefly luciferase (fluc) transfected rat C6 glioma (C6-fluc). A day prior to the radioactive imaging, the mice were given with luciferin and bioluminescence OI was performed to verify the presence of tumor (FIG. 1.3a). Then [^18F]FDG was injected to the mice bearing C6-fluc glioma and imaged sequentially with IVIS Spectrum (FIG. 1.3b) and microPET (FIG. 1.3c). […] High imaging signals from bladder and brain were also observed by both modalities. But heart was hardly visible in the radioactive OI because it localizes deep inside of the mice body. After we sacrificed and open the thorax of the mice, the heart could be easily identified (FIG. 1.3d, yellow arrow). To further characterize the distribution of [^18F]FDG using radioactive OI, tumors and other normal organs and tissues were removed from the mice sacrificed and subjected to IVIS Spectrum imaging.
Quantitative analysis of both radioactive OI and microPET images was performed. The OI intensities in the tumor and the normal tissue as a function of time for [^18F]FDG was depicted in FIG. 1.3f, while the radioactivity accumulation in tumor and muscle over time was shown in FIG. 1.3g. […] Finally, regression analysis was performed for the tumor uptakes obtained from two imaging modalities, in order to further evaluate the quantitative analysis data obtained from radioactive OI. Good correlation was seen between the radioactive OI signal intensities and microPET images derived tumor uptakes (FIG. 1.3h, r^2 over 0.90 for the analyses). […]
Radioactive optical imaging: In vivo radioactive OI was also performed with an IVIS Spectrum system. […] Images were acquired and analyzed using Living Image 3.0 software (Caliper life sciences, Hopkinton, Mass.). Quantification of Radioactive OI images was corrected in accordance with radionuclides' respective physical decay properties. […]

In a further data set the test system is C6 glioma tumor. The experiment in a line: Cerenkov luminescence imaging with 6 mm fiber optic bundle in mice bearing C6 glioma. As to conditions: n=4. In kind it is in vivo. An excerpt: Typical optical endoscopy imaging system includes an endoscope (usually made out of optical fibers and/or optical lenses such as grin/rod lenses), a white light source, and a CCD camera that is connected to the computer monitor. […] The subject “S” was placed […] the field of view (FOV) of the imaging system. The input end of the OF was placed close to the subject “S”. The output end of the “OF” faced the CCD camera such that the image transmitted by the output end was imaged on to the CCD camera using a relay lens system. The optical signal was normalized to photons per second per centimeter square per steradian (p/s/cm^2/sr). Identical settings were used for both in vitro and living mouse experiments.
^18F-FDG was produced by the Radiochemistry Facility at Stanford University using standard procedures. […] A CRC-15R PET dose calibrator (Capintec Inc., Ramseb, N.J.) was used for all radioactivity measurements. […]
To further characterize the distribution of ^18F-FDG, tumors and other organs were removed from the sacrificed mice (n=4) and subjected to fiber optic imaging as mentioned above. Inset figure on top right corner of each organ in FIG. 3.6(a) represents average Cerenkov radiance detected by a 6 mm fiber optic bundle. FIG. 3.6(b) represents biodistribution of ^18F-FDG in various tissues at one hour post injection in mice as measured using optical signals from radionuclides. […]

Another data set concerns primary bladder tumor. The settings on record: primary bladder tumor in humans; cited from earlier work.

With “2-deoxy-2-[^18F]fluoro-D-glucose [[^18F]FDG]”, the “tumor uptake over time” value in the data set on C6-fluc tumors (from 0.5-2 h) is “increased over time”. Also, the tumor localization entry in the data set on C6-fluc tumors (radioactive OI and microPET, 0.5-2 h p.i.) is “preferentially localized and was retained in C6-fluc tumors”. In addition, the “ex vivo distribution in tumors and normal organs” value in the data set with C6-fluc tumors (radioactive OI of removed tissues, 2.1 h p.i.) was “High activity was mainly observed from the tumor and heart tissue samples”. Further, in the data set on C6 glioma tumor (900 μCi i.v., 90 minutes post-injection), the “in vivo tracer uptake by fiber bundle signal” value is “Relatively high signals from the subcutaneous tumor and brain”. The “ex vivo tissue distribution by fiber bundle signal” value with C6 glioma tumor (one hour post injection) is “High signal was mainly observed from the tumor, heart, brain, and kidney tissue samples”. Further, in the data set with primary bladder tumor, the “standard uptake value (SUV)” value was around 4.5.
